SMILES strings stand for the structures. Converted amounts (≈) assume the structure as drawn.

One experiment concerns EBV (Daudi Cells). In words: EBV VCA ELISA in superinfected Daudi cells. Type of experiment: cell-based, Epstein-Barr virus. The conditions noted are these: human gammaherpesvirus 4, 96 h, 4 days.
A further experiment relates to HSV-1 (HFF Cells). Kind of experiment: HSV-1 cytoprotection assay in HFF cells (crystal violet). Format: cell-based, herpes simplex virus type 1. Conditions: Human alphaherpesvirus 1, 72 h, 3 days.
For another experiment, the system named is HSV-2 (HFF Cells). In words: HSV-2 cytoprotection assay in HFF cells (crystal violet). Type of experiment: cell-based, herpes simplex virus type 2. The conditions noted are these: Human alphaherpesvirus 2, 72 h, 3 days.
The next experiment has as its system HCMV (HFF Cells). In words: HCMV cytoprotection assay in HFF cells (crystal violet). Format: cell-based, human cytomegalovirus. Conditions: Human betaherpesvirus 5, 336 h, 14 days.

From the text for EBV (Daudi Cells): The EBV prototype virus used in the assay of this work was P3HR-1, which is derived from supernatant fluids of the P3HR-1 cell line. This cell line produces nontransforming virus that induces the production of early antigen (EA) and viral capsid antigen (VCA) after primary infection or superinfection of B cell lines. Daudi was the test-cell line, which is a low-level producer that contains 152 EBV genome copies per cell. These cells respond to superinfection by EBV by expressing EA and VCA. The cell line was maintained in RPMI-1640 medium supplemented by 10% FBS, L-glutamine and 100 micrograms per milliliter gentamicin. The cultures were fed twice weekly and the cell concentration adjusted to 3×10^5 cells per milliliter. The cells were kept at 37° C. in a humidified atmosphere with 5% CO2.
Daudi cells were infected and treated with humates as described above for HSV, HCMV, and VZV. The cultures were incubated for 4 days at 37° C. The cells were counted, washed and brought to the desired final concentration. For each dilution of humate, cells were added to triplicate wells of a 96-well plate and air-dried. The cells were then fixed for 20 minutes in an acetic acid/ethanol solution. […] The reaction was stopped by adding 3 Normal sulfuric acid, following which the plates were read on a microplate reader at 492 nanometers.

The term IC50 denotes the concentration that inhibits the measured activity by half. A low value points to inhibition by little substance. One may read the IC90 as the concentration at which the effect reaches the 90% level. For the compound `Nc1nc2c(ncn2COCCO)c(=O)[nH]1` [Acyclovir], the figures for the IC50 in the experiment with EBV (Daudi Cells), in the experiment with HSV-1 (HFF Cells) and in the experiment with HSV-2 (HFF Cells) were 1.8 to 2.4 µg/mL (≈ 7.99 to 10.7 µM), 1.2 to 1.6 µg/mL (≈ 5.33 to 7.1 µM) and 1.1 to 1.3 µg/mL (≈ 4.88 to 5.77 µM), respectively. Also, the figures for the IC90 in the experiment on HSV-1 (HFF Cells) and in the experiment on HSV-2 (HFF Cells) were 7.9 µg/mL (≈ 35.1 µM) and 9.5 µg/mL (≈ 42.2 µM), respectively.
In the experiment on HCMV (HFF Cells), `Nc1nc(O)c2ncn(COC(CO)CO)c2n1` [Ganciclovir] displayed an IC50 of 0.3 to 0.76 µg/mL (≈ 1.18 to 2.98 µM) and an IC90 of 0.6 to 1.3 µg/mL (≈ 2.35 to 5.09 µM).

The values are drawn from patent US6524566B2, “Synthetic soil-extract materials and medicaments for herpes viruses based thereon” (Laub Biochemicals Corp., priority 1997, dated 2003).
